# Assay results: patent publication US7098219B2, “Inhibitors of cellular efflux pumps of microbes” (Wockhart Limited, priority 2000, dated 2006)
# System: Staphylococcus aureus 1199 B NorA+
# Type: cell-based
# Conditions: combination with ciprofloxacin, broth microdilution checkerboard, 35° C. 20 hours; FIC index ≦0.5 synergistic, 0.5–2.0 additive, >2.0 antagonistic
# Text: Testing method for inhibition of the efflux pump of Staphylococcus aureus 1199B NorA^+
# […]. Victor Lorian, Md., Fourth edition 1996, pp 333–338).
# In short, the assay involves broth microdilution method performed as recommended by the National Committee for Clinical Laboratory Standards (NCCLS) 1997 (Methods for Dilution of Antimicrobial Susceptibility Tests for Bacteria that Grow Aerobically, Fourth edition; Approved Standard, NCCLS document M7-A4, vol. 17, No. 2). The test organism used for the assay is Staphylococcus aureus 1199 B NorA^+.
# […]. Stock solutions of the efflux pump inhibitors tested are prepared in dimethyl sulfoxide (DMSO) at a final concentration of 5 mg/ml. Stock solutions are further diluted in Mueller Hinton Broth as per the need of the assay. Ciprofloxacin is dissolved in water.
# The checkerboard assay is performed in microtiter plates. […] The efflux pump inhibitor is diluted in the Y-axis, each row containing an equal concentration of efflux pump inhibitor. The result of these manipulations is that each well of the microtiter plate contains a unique combination of concentrations of the two agents. Bacterial inoculum is added at 5×10^5 CFU/ml. Microtiter plates are incubated at 35° C. for 20 hours. Reading is done by visibly noting turbidity and confirmed using a microtiter plate reader (Molecular Devices). The FIC index is calculated as
# (A) is the concentration of the experimental efflux pump inhibitor in the well that is the lowest inhibitory concentration in the Y-axis. (MICA) is the MIC of Staphylococcus aureus to experimental efflux pump inhibitor alone. FICA is the fractional inhibitory concentration of an experimental efflux pump inhibitor. […] (Antimicrobial Combination In Antibiotics in Laboratory Medicine, Ed. Victor Lorian, Md., Fourth edition 1996, pp 333–338).
row,Compound,FIC INDEX
1,"COc1c(N2CC(C)C(O)C(C)C2)c(F)cc2c(=O)c(C(=O)O)cn(C3CC3)c12 (stereo not shown) [Example 22 (NorA), 1-Cyclopropyl-6-fluoro-8-methoxy-1,4-dihydro-7-(4′-hydroxy-3′,5′-dimethylpiperidin-1-yl)-4-oxo-quinoline-3-carboxylic acid]",0.370
2,"COc1c(N2CCNC(C)C2)c(F)cc2c(=O)c(C(=O)O)cn(C3CC3)c12 (stereo not shown) [Example 23 (NorA), 1-Cyclopropyl-6-fluoro-8-methoxy-1,4-dihydro-7-(3′-methylpiperazin-1-yl)-4-oxo-quinoline-3-carboxylic acid]",0.314
3,"COc1c(N2CC(C)C(N)C(C)C2)c(F)c(N)c2c(=O)c(C(=O)O)cn(C3CC3)c12 (stereo not drawn) [Example 24 (NorA), 5-Amino-1-cyclopropyl-6-fluoro-8-methoxy-1,4-dihydro-7-(cis-4′-amino-3′,5′-dimethylpiperidin-1-yl)-4-oxo-quinoline-3-carboxylic acid]",0.314
4,"CC1CCC(N)N1c1c(F)c(N)c2c(=O)c(C(=O)O)cn(C3CC3)c2c1F (stereo not shown) [Example 26 (NorA), 5-Amino-1-cyclopropyl-6,8-difluoro-1,4-dihydro-7-(5′-amino-2′-methyl-pyrrolidin-1-yl)-4-oxo-quinoline-3-carboxylic acid]",0.628
5,"C[C@H](N)C(=O)N[C@@H](C)C(=O)NC1CCN(c2c(F)c(N)c3c(=O)c(C(=O)O)cn(C4CC4)c3c2F)C1 (stereo partly drawn) [Example 27 (NorA), 5-Amino-1-cyclopropyl-6,8-difluoro-1,4-dihydro-7-{3′-(L-Ala-L-Alaamino)pyrrolidin-1-yl}-4-oxo-quinoline-3-carboxylic acid]",0.128
6,"CCCCN(CCCC)C1CCN(c2c(F)c(N)c3c(=O)c(C(=O)O)cn(C4CC4)c3c2F)CC1 [Example 28 (NorA), 5-Amino-1-cyclopropyl-6,8-difluoro-1,4-dihydro-7-{4′-(N-di-n-butylamino)piperidin-1-yl)-4-oxo-quinoline-3-carboxylic acid]",0.314
7,"C[C@H](NC(=O)OC(C)(C)C)C(=O)N[C@@H](C)C(=O)NC1CCN(c2c(F)c(N)c3c(=O)c(C(=O)O)cn(C4CC4)c3c2F)CC1 [Example 29 (NorA), 5-Amino-1-cyclopropyl-6,8-difluoro-1,4-dihydro-7-{4′-(-t-butoxycarbonylamino-L-Ala-L-Ala)aminopiperidin-1-yl}-4-oxo-quinoline-3-carboxylic acid]",0.320
8,"CCC(=O)OC1CCN(c2c(F)c(N)c3c(=O)c(C(=O)O)cn(C4CC4)c3c2F)CC1 [Example 30 (NorA), 5-Amino-1-cyclopropyl-6,8-difluoro-1,4-dihydro-7-(4′-propionoxypiperidin-1-yl)-4-oxo-quinoline-3-carboxylic acid]",0.314
9,"CC1(C)CN(c2c(F)c(N)c3c(=O)c(C(=O)O)cn(C4CC4)c3c2F)CCC1O (stereo not shown) [Example 31 (NorA), 5-Amino-1-cyclopropyl-6,8-difluoro-1,4-dihydro-7-(4′-hydroxy-3′,3′-dimethyl-piperidin-1-yl)-4-oxo-quinoline-3-carboxylic acid]",0.304
10,"Nc1c(F)c(N2CCC(N3CCCC3)CC2)c(F)c2c1c(=O)c(C(=O)O)cn2C1CC1 [Example 32 (NorA), 5-Amino-1-cyclopropyl-6,8-difluoro-1,4-dihydro-7-{4′-(1-pyrrolidinyl)piperidin-1-yl)-4-oxo-quinoline-3-carboxylic acid]",0.340
11,Nc1c(F)c(N2CCC(CNC3CCNCC3)CC2)c(F)c2c1c(=O)c(C(=O)O)cn2C1CC1 [Example 33 (NorA)],0.314
12,CN(c1c(F)c(N)c2c(=O)c(C(=O)O)cn(C3CC3)c2c1F)C1CC(C)(C)N(C)C(C)(C)C1 [Example 34 (NorA)],0.282
13,"CC1COCC(C)N1c1c(F)c(N)c2c(=O)c(C(=O)O)cn(C3CC3)c2c1F (stereo not shown) [Example 35 (NorA), 5-Amino-1-cyclopropyl-6,8-difluoro-1,4-dihydro-7-(3′,5′-dimethylmorpholin-1-yl)-4-oxo-quinoline-3-carboxylic acid]",0.314
14,"Nc1c(F)c(N2CCN(C3CC3)CC2)c(F)c2c1c(=O)c(C(=O)O)cn2C1CC1 [Example 36 (NorA), 5-Amino-1-cyclopropyl-6,8-difluoro-1,4-dihydro-7-(4′-cyclopropylpiperazin-1-yl)-4-oxo-quinoline-3-carboxylic acid]",0.314
15,"CC1CN(c2c(F)c(N)c3c(=O)c(C(=O)O)cn(C4CC4)c3c2F)CC(C)N1C(=O)C(C)(C)C (stereo not shown) [Example 37 (NorA), 5-Amino-1-cyclopropyl-6,8-difluoro-1,4-dihydro-7-(3′,5′-dimethyl-4-pivaloylpiperazin-1-yl)-4-oxo-quinoline-3-carboxylic acid]",0.314
16,"CCOC(=O)c1cn([C@@H](C)CCSc2ccccc2)c2c(F)c(N3CCC(O)CC3)c(F)cc2c1=O [Example 38 (NorA), Ethyl 6,8-Difluoro-7-(4-hydroxypiperidin-1-yl)-1-(1-phenylthio-3(S)-but-3-yl)-1,4-dihydro-4-oxo-quinoline-3-carboxylate]",0.100
17,"CN1CCN(c2cc3c(cc2F)c(=O)c(C(=O)O)cn3-c2ccccc2C(F)(F)F)CC1(C)C [Example 39 (NorA), 1-(2′-Trifluoromethylphenyl)-6-fluoro-1,4-dihydro- -7-(3′,3′,4′-trimethylpiperazin-1-yl)-4-oxo-quinoline-3-carboxylic acid]",0.282
18,"Nc1c(F)c(N2CCOCC2)c(F)c2c1c(=O)c(C(=O)O)cn2-c1ccccc1C(F)(F)F [Example 40 (NorA), 5-Amino-1-(2′-trifluoromethylphenyl)-6,8-difluoro-1,4-dihydro-7-(morpholin-1-yl)-4-oxo-quinoline-3-carboxylic acid]",0.314
19,"CC1COCC(C)N1c1c(F)c(N)c2c(=O)c(C(=O)O)cn(-c3ccccc3C(F)(F)F)c2c1F (stereo not shown) [Example 41 (NorA), 5-Amino-1-(2′-trifluoromethylphenyl)-6,8-difluoro-1,4-dihydro-7-(3′,5′-dimethylmorpholin-1-yl)-4-oxo-quinoline-3-carboxylic acid]",0.384
20,"CC1CN(c2c(F)c(N)c3c(=O)c(C(=O)O)cn(-c4ccccc4C(F)(F)F)c3c2F)CC(C)N1 (stereo not shown) [Example 42 (NorA), 5-Amino-1-(2′-trifluoromethylphenyl)-6,8-difluoro-1,4-dihydro-7-(3′,5′-dimethylpiperizine-1-yl)-4-oxo-quinoline-3-carboxylic acid]",0.314
21,"Nc1c(F)c(N2CCC(N)C2)c(F)c2c1c(=O)c(C(=O)O)cn2-c1ccc(C(F)(F)F)cc1 (stereo not shown) [Example 43 (NorA), 5-Amino-1-(4′-trifluoromethylphenyl)-6,8-difluoro-1,4-dihydro-7-(3′-aminopyrrolidin-1-yl)-4-oxo-quinoline-3-carboxylic acid]",0.564
22,CCNC1CCN(c2cc3c(cc2F)c(=O)c(C(=O)O)cn3-c2ccc(F)cc2)CC1 [Example 44 (NorA)],0.189
23,"CC1CC(C)CN(c2cc3c(cc2F)c(=O)c(C(=O)O)cn3-c2ccc(F)cc2F)C1 (stereo not shown) [Example 45 (NorA), 1-(2′,4′-Difluorophenyl)-6-fluoro-1,4-dihydro-7-(3′,5′-dimethylpiperidin-1-yl)-4-oxo-quinoline-3-carboxylic acid]",0.192
24,"CC1CC(O)CN1c1c(F)c(N)c2c(=O)c(C(=O)O)cn(-c3ccc(F)cc3F)c2c1F (stereo not shown) [Example 46 (NorA), 5-Amino-1-(2′,4′-difluorophenyl)-6,8-difluoro-1,4-dihydro-7-(3′-hydroxy-5′-methylpyrrolidin-1-yl)-4-oxo-quinoline-3-carboxylic acid]",0.314
25,"CC1(C)CN(c2c(F)c(N)c3c(=O)c(C(=O)O)cn(-c4ccc(F)cc4F)c3c2F)CCN1 [Example 47 (NorA), 5-Amino-1-(2′,4′-difluorophenyl)-6,8-difluoro-1,4-dihydro-7-(3′,3′-dimethylpiperazin-1-yl)-4-oxo-quinoline-3-carboxylic acid]",0.375
26,"CCOC(=O)NC1CCN(c2nc3c(cc2F)c(=O)c(C(=O)O)cn3C2CC2)C1 (stereo not shown) [Example 48 (NorA), 1-Cyclopropyl-6-fluoro-1,4-dihydro-7-{(3′-aminoethoxycarbonyl)pyrrolidin-3-yl}-4-oxo-naphthyridine-3-carboxylic acid]",(3-ethoxycarbonylamino)pyrrolidin-3-yl 0.314
27,"CCOC(=O)c1cn(-c2ccc(F)cc2F)c2nc(NC3C4CN(Cc5ccccc5)CC43)c(F)cc2c1=O (stereo not shown) [Example 51 (NorA), Ethyl-1-(2′,4′-difluorophenyl)-6-fluoro-1,4-dihydro-7-{[1∝,5∝,6∝]-3-N-benzyl-3-azabicyclo[3.1.01]hex-6-yl-amino}-4-oxo-1,8-naphthyridine-3-carboxylate]",0.185
28,"CCOC(=O)c1cn(-c2ccc(F)cc2F)c2nc(N3CCc4c(cnn4-c4ccccc4)C3)c(F)cc2c1=O [Example 52 (NorA), Ethyl 6-fluoro-7-[1-Phenyl-4,5,6,7-tetrahydropyrazolo[4.3-c]pyridin-1-yl]-1-(2,4-difluorophenyl)-4-oxo-1,4-dihydro-1,8-naphthyridine-3-carboxylate]",0.100
